Several values for one entry are separate records, joined by “and”; a condition that tells them apart may be missing. Equal values may be shown once.
Assays:
Type in all cases: functional, Homo sapiens
U2OS [1] = test: (§1) Here: values are normalized to the negative (DMSO; defined as 0% autophagy induction) and positive (250nM Torin1; mTOR inhibitor; defined as maximal inducer of autophagy = 100%) control compounds and represented as % of autophagy induction. […] The impact of autophagy induction on cells is complex and depends on the affected target. As such, the magnitude of a phenotype may not be equally mirrored in the %-value of autophagy induction and vice versa. The dynamics of the induction may indicate the mode of activation: e.g. activation via phosphorylation or a signaling cascade may occur fast, while activation via transcription factors may take considerably longer. […] Of note, treatment concentrations may be sub-optimal for specific compounds, leading to false negative annotations.; conditions: Culturing Media DMEM, 1 % Penicillin/Streptomycin, 10% Fetal bovin serum Add-On: No, Screening Media Control DMEM, Screening Media Samples DMEM
TERT-RPE1 = test: as §1; conditions: Culturing Media DMEM/F12 (1:1), 1 % Penicillin/Streptomycin, 10% Fetal bovin serum Add-On: No, Screening Media Control DMEM/F12 (1:1), Screening Media Samples DMEM/F12 (1:1)
U2OS [2] = test: as §1; conditions: Culturing Media DMEM, 1 % Penicillin/Streptomycin, 10% Fetal bovin serum Add-On: No, Screening Media Control DMEM, Screening Media Samples DMEM; remark: listed apart in the source
[3] = Compound Concentration 0.5 uM, Timepoint 12 hours
[4] = Compound Concentration 0.5 uM, Timepoint 24 hours
[5] = Compound Concentration 0.5 uM, Timepoint 36 hours
[6] = Compound Concentration 0.5 uM, Timepoint 60 hours
[7] = Compound Concentration 2 uM, Timepoint 12 hours
[8] = Compound Concentration 2 uM, Timepoint 24 hours
[9] = Compound Concentration 2 uM, Timepoint 36 hours
[10] = Compound Concentration 2 uM, Timepoint 60 hours
[11] = Compound Concentration 10 uM, Timepoint 12 hours
[12] = Compound Concentration 10 uM, Timepoint 24 hours
[13] = Compound Concentration 10 uM, Timepoint 36 hours
[14] = Compound Concentration 10 uM, Timepoint 60 hours
[15] = Compound Concentration 0.5 uM, Timepoint 12 hours, 12 h, 0.5 µM
[16] = Compound Concentration 0.5 uM, Timepoint 24 hours, 24 h, 0.5 µM
[17] = Compound Concentration 0.5 uM, Timepoint 36 hours, 36 h, 0.5 µM
[18] = Compound Concentration 0.5 uM, Timepoint 60 hours, 60 h, 0.5 µM
[19] = Compound Concentration 2 uM, Timepoint 24 hours, 24 h, 2 µM
[20] = Compound Concentration 2 uM, Timepoint 36 hours, 36 h, 2 µM
[21] = Compound Concentration 2 uM, Timepoint 60 hours, 60 h, 2 µM
[22] = Compound Concentration 10 uM, Timepoint 12 hours, 12 h, 10 µM
[23] = Compound Concentration 10 uM, Timepoint 24 hours, 24 h, 10 µM
[24] = Compound Concentration 10 uM, Timepoint 36 hours, 36 h, 10 µM
[25] = Compound Concentration 10 uM, Timepoint 60 hours, 60 h, 10 µM
[26] = Compound Concentration 2 uM, Timepoint 12 hours, 12 h, 2 µM

SMILES	autophagy induction (U2OS [1]; [3])	autophagy induction (U2OS [1]; [4])	autophagy induction (U2OS [1]; [5])	autophagy induction (U2OS [1]; [6])	autophagy induction (U2OS [1]; [7])	autophagy induction (U2OS [1]; [8])	autophagy induction (U2OS [1]; [9])	autophagy induction (U2OS [1]; [10])	autophagy induction (U2OS [1]; [11])	autophagy induction (U2OS [1]; [12])	autophagy induction (U2OS [1]; [13])	autophagy induction (U2OS [1]; [14])	autophagy induction (TERT-RPE1; [15])	autophagy induction (TERT-RPE1; [16])	autophagy induction (TERT-RPE1; [17])	autophagy induction (TERT-RPE1; [18])	autophagy induction (TERT-RPE1; [19])	autophagy induction (TERT-RPE1; [20])	autophagy induction (TERT-RPE1; [21])	autophagy induction (TERT-RPE1; [22])	other results
CCCCCCCCCCCCCCCCOC[C@H](COP(=O)([O-])OCC[N+](C)(C)C)OC(C)=O	1.863%	3.665%	-3.033%	-9.658%	2.298%	-2.882%	-2.921%	-2.8%	10.6263%	0.8651%	6.18%	5.674%	-0.9527% and 1.704%	-3.436% and -0.1454%	-3.259% and 2.221%	-5.529% and 3.615%	-0.2119% and 13.6511%	-1.573% and 9.518%	-2.541% and 14.6368%	8.2187% and 7.039%	autophagy induction (TERT-RPE1; [23]): 4.065% and 6.451%; autophagy induction (TERT-RPE1; [24]): 4.665% and 7.035%; autophagy induction (TERT-RPE1; [25]): 6.217% and 11.8263%; autophagy induction (U2OS [2]; [3]): 2.963%; autophagy induction (U2OS [2]; [4]): 0.1782%; autophagy induction (U2OS [2]; [5]): 2280.79%; autophagy induction (U2OS [2]; [6]): -1.799%; autophagy induction (U2OS [2]; [7]): -5.387%; autophagy induction (U2OS [2]; [8]): -3.326%; autophagy induction (U2OS [2]; [9]): 2231.79%; autophagy induction (U2OS [2]; [10]): -1.895%; autophagy induction (U2OS [2]; [11]): -2.708%; autophagy induction (U2OS [2]; [12]): -1.793%; autophagy induction (U2OS [2]; [13]): 678.152%; autophagy induction (U2OS [2]; [14]): 1.655%
FC(F)(F)c1c(N2CCC(c3ccccc3)CC2)ccn2c(CC3CC3)nnc12	6.212%	3.779%	-3.086%	-2.905%	-8.584%	-5.642%	-3.294%	-4.323%	-9.128%	-9.508%	-1.15%	-1.079%	0.8285% and 1.833%	-1.6355% and 0.4371%	-2.42% and 3.239%	-6.544% and 5.154%	-0.3973% and 6.29%	-4.125% and 5.099%	-2.871% and 7.601%	0.02052% and 7.4327%	autophagy induction (TERT-RPE1; [26]): -0.736% and 6.309%; autophagy induction (TERT-RPE1; [23]): -1.251% and 7.807%; autophagy induction (TERT-RPE1; [24]): -2.896% and 10.4333%; autophagy induction (TERT-RPE1; [25]): -4.9464% and 19.419%; autophagy induction (U2OS [2]; [3]): -3.682%; autophagy induction (U2OS [2]; [4]): -3.457%; autophagy induction (U2OS [2]; [5]): 1345.14%; autophagy induction (U2OS [2]; [6]): -2.1724%; autophagy induction (U2OS [2]; [7]): -2.443%; autophagy induction (U2OS [2]; [8]): -4.21%; autophagy induction (U2OS [2]; [9]): -60.9304%; autophagy induction (U2OS [2]; [10]): -2.478%; autophagy induction (U2OS [2]; [11]): 1.237%; autophagy induction (U2OS [2]; [12]): -0.8788%; autophagy induction (U2OS [2]; [13]): -59.5065%; autophagy induction (U2OS [2]; [14]): -0.8045%
CCCCC#Cc1nc(NC)c2ncn([C@@H]3O[C@H](CO)[C@@H](O)[C@H]3O)c2n1	1.872%	-1.476%	-3.077%	-6.595%	-4.8354%	-5.442%	-4.18%	-14.3215%	-0.5241%	-0.2798%	-5.149%	-3.023%	-2.336% and -0.4442%	-5.778% and -2.388%	-6.915% and -5.4%	-6.339% and -4.703%	3.405% and -0.3092%	0.8288% and 0.6571%	0.7882% and 0.00413%	9.462% and -4.43%	autophagy induction (TERT-RPE1; [26]): 2.252% and 1.572%; autophagy induction (TERT-RPE1; [23]): 9.8196% and -3.782%; autophagy induction (TERT-RPE1; [24]): 10.3694% and -2.886%; autophagy induction (TERT-RPE1; [25]): 10.0597% and -2.862%; autophagy induction (U2OS [2]; [3]): 7.971%; autophagy induction (U2OS [2]; [4]): 2.814%; autophagy induction (U2OS [2]; [5]): -58.1103%; autophagy induction (U2OS [2]; [6]): -0.9818%; autophagy induction (U2OS [2]; [7]): 3.199%; autophagy induction (U2OS [2]; [8]): -2.198%; autophagy induction (U2OS [2]; [9]): -60.437%; autophagy induction (U2OS [2]; [10]): -1.323%; autophagy induction (U2OS [2]; [11]): 0.2414%; autophagy induction (U2OS [2]; [12]): -3.3271%; autophagy induction (U2OS [2]; [13]): -60.2602%; autophagy induction (U2OS [2]; [14]): -0.5763%

From ChEMBL document CHEMBL5724696, “Autophagy assay results for EUbOPEN Chemogenomics Library” (2024)
